Series [1] is described as follows: human liver microsome (HLM) metabolic stability assay. The series is classed as in vitro ADME. The following applies: human liver microsomes; % hepatic blood flow calculated from t1/2. The procedure:
The 5 time point, high-throughput human liver microsome (HLM) metabolic stability assay is designed to determine in vitro compound metabolism. Compounds are incubated with HLMs at a concentration of 1 uM, at 37° C., for a total of 60 min. The percent of compound remaining at 5, 15, 30, and 60 min is used to calculate the t½ (min), CLint (mL/min/kg), CLh (mL/min/kg), and % Qh. The assay is based on a 96-well format and can accommodate up to 92 compounds per plate (n=1).
Using the 96-well multi-channel head, the Biomek FX, equipped with a Peltier heating block/shaker, is programmed to accomplish the following steps: • 1. Pipette 175 uL of 1.15 mg/mL microsomes into each of the 96 conical inserts (Analytical Sales and Products, catalog number 96PL05) that fit into the plate of the Peltier heating block/shaker (the incubation plate) • 2. Add 5 uL of compounds from the assay plate to the microsomes and shake the mixture at 600 rpm at 42.1° C. for 10 min (a setting of 42.1° C. on the Peltier is required for the samples to incubate at 37° C.) • 3. After 10 min, prompt the user to add the NADPH plate to the deck and add 20 uL from the NADPH plate to the incubation plate to start the reaction • 4. Add 215 uL of 100%, cold acetonitrile containing an internal standard(s) to a 0 minute, 5 minute, 15 minute, 30 minute, and 60 minute “quench” plate • 5. At 0 min, 5 min, 15 min, 30 min, and 60 min into the incubation, aspirate 12 uL from the incubation mixture and add it to the quench solution to stop the reaction • 6. Add 185 uL HPLC grade water to each well of the 0, 5, 15, 30 and 60 minute quench plates to dilute compounds to the appropriate concentration for the mass spectrometer
After all time points are collected, the quench plates are sealed with 96-well pierceable plate mats or heat sealing foil and centrifuged at 3000 rpm for 15 min to pellet the microsomes.
The plates are analyzed using LC/MS/MS with electron spray ionization (ESI) and the previously determined MRM transitions. The LC method includes the following parameters:
Using an Excel template in Activitybase, the peak areas corresponding to 5, 15, 30 and 60 min are compared to the peak area at 0 min to calculate the percent of remaining compound using the following equation: Percent compound remaining=(AUC at Time t min/AUC at Time 0 min)×100 where t=0, 5, 15, 30 or 60 min.
Time (min) is plotted against the natural logarithm (Ln) of the percent compound remaining to determine the slope. The slope is used to calculate t½ (min) using the equation, t½=0.693/slope.
Preferred compounds have % Qh values of less than 24.

Series [2] addresses T1, human soluble guanylate cyclase alpha 1 and beta 1 subunits (sGC) (Homo sapiens, UniProt Q02108+Q02153).
T1 construct: expressed in transfected cells; host or cells: Chinese hamster ovary (CHO) cells, stably transfected
T1 sequence (Q02108 1-690): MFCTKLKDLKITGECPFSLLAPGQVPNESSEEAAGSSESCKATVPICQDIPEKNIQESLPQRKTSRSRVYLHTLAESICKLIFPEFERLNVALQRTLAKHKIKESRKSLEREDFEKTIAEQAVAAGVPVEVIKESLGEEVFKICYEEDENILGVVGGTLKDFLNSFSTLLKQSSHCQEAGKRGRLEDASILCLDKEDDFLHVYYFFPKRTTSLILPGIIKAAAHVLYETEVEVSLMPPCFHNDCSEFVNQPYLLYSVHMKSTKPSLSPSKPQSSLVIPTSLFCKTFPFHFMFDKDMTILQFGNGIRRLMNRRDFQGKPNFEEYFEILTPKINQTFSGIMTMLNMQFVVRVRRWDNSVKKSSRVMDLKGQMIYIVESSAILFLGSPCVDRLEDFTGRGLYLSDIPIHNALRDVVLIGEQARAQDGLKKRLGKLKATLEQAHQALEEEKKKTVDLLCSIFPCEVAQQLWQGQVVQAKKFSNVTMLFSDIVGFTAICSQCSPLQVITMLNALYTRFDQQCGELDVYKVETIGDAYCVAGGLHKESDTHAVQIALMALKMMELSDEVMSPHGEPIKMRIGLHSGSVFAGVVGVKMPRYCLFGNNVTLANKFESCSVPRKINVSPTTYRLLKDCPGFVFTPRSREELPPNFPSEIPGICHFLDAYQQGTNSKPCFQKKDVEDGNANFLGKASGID
T1 sequence (Q02153 1-619): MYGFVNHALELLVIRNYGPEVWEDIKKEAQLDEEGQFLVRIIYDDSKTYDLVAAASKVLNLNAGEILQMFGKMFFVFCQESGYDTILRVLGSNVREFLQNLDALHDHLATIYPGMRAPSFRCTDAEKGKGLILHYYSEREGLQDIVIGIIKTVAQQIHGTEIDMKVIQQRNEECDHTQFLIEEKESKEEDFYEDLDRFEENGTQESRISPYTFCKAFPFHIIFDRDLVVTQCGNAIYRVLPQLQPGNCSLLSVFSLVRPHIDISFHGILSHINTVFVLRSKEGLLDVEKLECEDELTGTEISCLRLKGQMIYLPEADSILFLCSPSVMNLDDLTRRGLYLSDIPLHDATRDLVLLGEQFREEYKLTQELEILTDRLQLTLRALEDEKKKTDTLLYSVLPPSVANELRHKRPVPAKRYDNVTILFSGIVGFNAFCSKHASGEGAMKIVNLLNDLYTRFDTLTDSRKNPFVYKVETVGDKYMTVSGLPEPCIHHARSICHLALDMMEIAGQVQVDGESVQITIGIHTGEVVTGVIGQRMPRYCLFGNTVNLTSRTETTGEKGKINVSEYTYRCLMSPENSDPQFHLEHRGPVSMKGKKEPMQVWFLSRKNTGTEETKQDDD
Description: sGC cellular activator assay (cGMP, HTRF). The series is classed as cell-based. The following applies: CHO cells stably expressing human sGC alpha 1/beta 1, preincubated with 40 microM ODQ; cGMP readout; assay run with and without 50% human serum, Table 2 does not say which. The method, then: The sGC cellular activator assay is performed in the presence and absence of 50% human serum (HS) using Chinese hamster ovary cells that have been stably transfected to express the human soluble guanylate cyclase alpha 1 and beta 1 subunits (sGC). Cells are preincubated with 40 microM 1H-[1,2,4]oxadiazolo[4,3-a]quinoxalin-1-one (ODQ), an sGC inhibitor, for one h in buffer containing 0.1% bovine serum albumin and 3-isobutyl-1-methylxanthine (IBMX). Concentration response curves are prepared for test compounds in DMSO. An intermediate dilution of the compounds is performed in either buffer containing IBMX or type AB HS containing IBMX. Diluted compounds are added to cells and they are incubated at room temperature for thirty min. cGMP is measured using a CisBio homogeneous time resolved fluorescence kit and the EC50 is calculated for each compound.
Representative compounds of the present invention were tested for activity the above assay. Preferred compounds have an EC50 of <1,000 nM in the above assay and more preferred compounds have an EC50<200 nM.

With `COc1c(C(=O)O)cnn1-c1cccc(-c2cccc(Cl)c2OCc2ccc3c(c2)CCN(C2COC2)C3)n1` [Compound 7], in series [1], the “HLM (% Qh)” value is less than 24 % Qh. In addition, in series [2], the concentration for a half-maximal effect (EC50) amounted to 32 nM.
`COc1c(C(=O)O)cnn1-c1cccc(-c2cccc(C)c2OCc2ccc3c(c2)CCN(C2COC2)C3)n1` [Compound 8]: the “HLM (% Qh)” value in series [1] was less than 24 % Qh. The compound further showed an EC50 in series [2] of 42 nM.
For `COc1c(C(=O)O)cnn1-c1cccc(-c2cccc(C(F)(F)F)c2OCc2ccc3c(c2)CCN(C2COC2)C3)n1` [Compound 9] the same measures were less than 24 % Qh and 59 nM.
The like results for `COc1c(C(=O)O)cnn1-c1cccc(-c2cccc(C)c2OCc2ccc3c(c2)C(C)(C)CN(C2COC2)C3)n1` [Compound 10] were, in that order, 30 % Qh and 16 nM.
For `COc1c(C(=O)O)cnn1-c1cccc(-c2cccc(C)c2OCc2ccc3c(c2)CCN(CC(F)(F)F)C3)n1` [Compound 11, 5-methoxy-1-(6-{3-methyl-2-[2-(2,2,2-trifluoro-ethyl)-1,2,3,4-tetrahydro-isoquinolin-6-ylmethoxy]-phenyl}-pyridin-2-yl)-1H-pyrazole-4-carboxylic acid] the same measures were 47 % Qh and 17 nM.
In the case of `COc1c(C(=O)O)cnn1-c1cccc(-c2cccc(C)c2OCc2ccc3c(c2)CCN(CC2(C)COC2)C3)n1` [Compound 12], the “HLM (% Qh)” value in series [1] was less than 24 % Qh. This compound gave an EC50 in series [2] of 26 nM.
The like results for `COc1c(C(=O)O)cnn1-c1cccc(-c2cccc(C)c2OCc2ccc3c(c2)CCN(C(C)C)C3)n1` [Compound 13] were, in that order, less than 24 % Qh and 180 nM.
For `COc1c(C(=O)O)cnn1-c1cccc(-c2cccc(C)c2OCc2ccc3c(c2)CCN(CC(C)(C)C)C3)n1` [Compound 14] the same measures were 31 % Qh and 18 nM.
For `CCOc1c(C(=O)O)cnn1-c1cccc(-c2cccc(C)c2OCc2ccc3c(c2)CCN(CC2CC(=O)N(C)C2)C3)n1` (stereo not shown) [Compound 97, 5-ethoxy-1-(6-{3-methyl-2-[2-(1-methyl-5-oxo-pyrrolidin-3-ylmethyl)-1,2,3,4-tetrahydro-isoquinolin-6-ylmethoxy]-phenyl}-pyridin-2-yl)-1H-pyrazole-4-carboxylic acid] the same measures were less than 24 % Qh and 67 nM.
With `COc1c(C(=O)O)cnn1-c1cccc(-c2ccc(C)cc2OCc2ccc3c(c2)CCN(C2CCOCC2)C3)n1` [Compound 98], in series [1], the “HLM (% Qh)” value is on record as 31 % Qh. In addition, the response in series [2] was half-maximal at 270 nM (EC50).
Consider `COc1c(C(=O)O)cnn1-c1cccc(-c2ccc(C)cc2OCc2ccc3c(c2C)CCN(C2CCOCC2)C3)n1` [Compound 99], for which the “HLM (% Qh)” value in series [1] is less than 24 % Qh. The compound further gave a 50% effective concentration (EC50) in series [2] of 160 nM.
With `COc1c(C(=O)O)cnn1-c1cccc(-c2cccc(C)c2OCc2ccc3c(c2)CCCN(C2CCOCC2)C3)n1` [Compound 100], the “HLM (% Qh)” value in series [1] was 31 % Qh. The same compound gave an EC50 in series [2] of 170 nM.
For `CCOc1c(C(=O)O)cnn1-c1cccc(-c2cccc(C)c2OCc2ccc3c(c2)CCN(CC2CCCO2)C3)n1` (stereo not shown) [Compound 101, 5-ethoxy-1-(6-{3-methyl-2-[2-(tetrahydro-furan-2-ylmethyl)-1,2,3,4-tetrahydro-isoquinolin-6-ylmethoxy]-phenyl}-pyridin-2-yl)-1H-pyrazole-4-carboxylic acid] the same measures were less than 24 % Qh and 110 nM.
With `COc1c(C(=O)O)cnn1-c1cccc(-c2cccc(C)c2OCc2ccc3c(c2)CCN([C@H]2CC[C@]4(CCCO4)CC2)C3)n1` [Compound 102], the “HLM (% Qh)” value in series [1] is less than 24 % Qh. The compound further gave an EC50 in series [2] of 110 nM.
With `COc1c(C(=O)O)cnn1-c1cccc(-c2cccc(C)c2OCc2ccc3c(c2)CCN([C@H]2CC[C@@]4(CCCO4)CC2)C3)n1` [Compound 103], the “HLM (% Qh)” value in series [1] is reported as 25 % Qh. Besides, the EC50 in series [2] was 110 nM.
For `Cc1cccc(-c2cccc(-n3ncc(C(=O)O)c3OC(C)C)n2)c1OCc1ccc2c(c1C)CCN(C1CCOCC1)C2` [Compound 104] the same measures were 26 % Qh and 31 nM.
For `COc1c(C(=O)O)cnn1-c1cccc(-c2cccc(C)c2OCc2ccc3c(c2C)CCN([C@H]2CCOC2)C3)n1` [Compound 105] the same measures were less than 24 % Qh and 17 nM.
For `COc1c(C(=O)O)cnn1-c1cccc(-c2cccc(C)c2OCc2ccc3c(c2C)CCN([C@@H]2CCOC2)C3)n1` [Compound 106] the same measures were less than 24 % Qh and 27 nM.
With `CCOc1c(C(=O)O)cnn1-c1cccc(-c2cccc(C)c2OCc2ccc3c(c2)CCN([C@H]2CCOC2)C3)n1` [Compound 110], in series [1], the “HLM (% Qh)” value is recorded as less than 24 % Qh. The same compound registered an EC50 in series [2] of 45 nM.
The like results for `Cc1cccc(-c2cccc(-n3ncc(C(=O)O)c3OC(C)C)n2)c1OCc1ccc2c(c1)CCN([C@H]1CCOC1)C2` [Compound 111] were, in that order, less than 24 % Qh and 99 nM.
The like results for `CCOc1c(C(=O)O)cnn1-c1cccc(-c2cccc(C)c2OCc2ccc3c(c2)CCN([C@@H]2CCOC2)C3)n1` [Compound 112] were, in that order, less than 24 % Qh and 110 nM.
The like results for `Cc1cccc(-c2cccc(-n3ncc(C(=O)O)c3OC(C)C)n2)c1OCc1ccc2c(c1)CCN([C@@H]1CCCOC1)C2` [Compound 113] were, in that order, less than 24 % Qh and 24 nM.
Consider `CCOc1c(C(=O)O)cnn1-c1cccc(-c2cccc(C)c2OCc2ccc3c(c2C)CCN(C2CCOCC2)C3)n1` [Compound 114], for which the “HLM (% Qh)” value in series [1] was less than 24 % Qh. Besides, in series [2], the EC50 was 40 nM.
